Test results published in US4382940A (priority 1979, dated 1983).
Where two headings read alike, the source gives them in different places.

Experiments:
[1] = tested on: central amphetamine-induced hypothermia; assay: antagonism to central amphetamine-induced hypothermia; settings: Mus musculus, po, read-out: Amphetamine antagonism (ED50)
[2] = orientative acute toxicity (7 days observation, Irwin's observational assessment of mouse behavior); settings: mouse, in vivo, po
[3] = tested on: reserpine-induced blepharospasm; assay: antagonism to reserpine-induced blepharospasm; format: in vivo, male mice; settings: Mus musculus, po, 3 h, read-out: Reserpine antagonism, Blepharospasm (ED50)
Description: (§1) The tests were performed in an air-conditioned room at the constant temperature of 19°±1° C. Randomized groups of male mice were respectively treated by gavage with appropriate screening doses (from a maximum of 25 mg/kg below) of the test compounds, suspended in the vehicle (Methocel 0.5%; 1 ml/100 g b.w.), or with the vehicle alone.
(§2) One hour later the animals received an i.p. injection of reserpine (1.5 mg/kg; 1 ml/100 g b.w.), and one of the control groups the same volume of the vehicle alone (blank controls). Three hours after pretreatments, i.e. two hours after reserpine or vehicle treatments, blepharospasm was evaluated in scores as proposed by RUBIN et al. (J. Pharmacol., 120:125, 1957).

[4] = tested on: reserpine-induced hypothermia; assay: antagonism to reserpine-induced hypothermia; format: in vivo; settings: Mus musculus, po; gavage 1 h before reserpine 1.5 mg/kg i.p.; rectal temperature 2 h after blepharospasm evaluation; male mice
Description: as §1, §2
Two hours after the above-mentioned evaluation the rectal temperature of the animals was recorded by an appropriate probe connected to a digital thermometer (ELLAB DU-3).

[5] = tested on: mouse; assay: orientative acute toxicity (7 days observation, Irwin's observational assessment of mouse behavior); settings: in mice; imipramine compared with title compounds

Row | Compound | ED50 [1] [mg/kg] | LD50 at 168 h [2] [mg/kg] | ED50 [3] [mg/kg] | ED50 [4] [mg/kg] | ED50 ([3]; gavage 1 h before reserpine 1.5 mg/kg i.p., scored 2 h after reserpine, male mice) [mg/kg] | orientative acute toxicity (in words) [5]
1 | CC(=O)C=C(C)OC[C@@H]1C[C@@H]2c3cccc4[nH]cc(c34)C[C@H]2N(C)C1 [355/1171, 6-Methyl-3-[(3-buten-2-one-4-methyl)-4-oxymethyl]-ergoline] | 0.023 | > 800 |  |  |  | 
2 | CN1C[C@H](CNC2=CC(=O)CC2)C[C@@H]2c3cccc4[nH]cc(c34)C[C@H]21 [355/1206, 6-Methyl-8-[(2-cyclopentenon)-3-aminomethyl]-ergoline] |  | > 800 | 3.1 | 7.7 |  | 
3 | CN1C[C@H](COC2=CC(=O)CC2)C[C@@H]2c3cccc4[nH]cc(c34)C[C@H]21 [355/1228, 6-Methyl-8-[(2-cyclopentenon)-3-oxymethyl]-ergoline] |  | > 600 | 0.14 | 0.39 |  | 
4 | CO[C@]12C[C@@H](COC3=CC(=O)CC3)CN(C)[C@@H]1Cc1cn(C)c3cccc2c13 [355/1240, 1,6-Dimethyl-8-[(2-cyclopentenon)-3-oxymethyl]-10-methoxyergoline] | 1.8 | 200 |  |  |  | 
5 | CN1C[C@H](CNC2=CC(=O)CC2)C[C@@H]2c3cccc4c3c(cn4C)C[C@H]21 [355/1295, 1,6-Dimethyl-8-[(2-cyclopentenon)-3-aminomethyl]-ergoline] | 1.8 | > 400 |  |  |  | 
6 | Cc1[nH]c2cccc3c2c1C[C@@H]1[C@@H]3C[C@@H](COC2=CC(=O)CC2)CN1C [355/1301, 2,6-Dimethyl-8-[(2-cyclopentenon)-3-oxymethyl]-ergoline] |  | 300 | 0.46 | 0.57 |  | 
7 | CC(=CC#N)OC[C@@H]1C[C@@H]2c3cccc4[nH]cc(c34)C[C@H]2N(C)C1 [355/1311, 6-Methyl-8-[(3-methylacrylic nitrile)-3-oxymethyl]-ergoline] |  | 300 | 1.5 | 3.4 |  | 
8 | CN1C[C@H](COC2=CC(=O)CC2)C[C@@H]2c3cccc4[nH]c(Cl)c(c34)C[C@H]21 [355/1335, 2-Chloro-6-methyl-8-[(2-cyclopentenon)-3-oxymethyl]-ergoline] |  | 200 | 0.2 | 0.3 |  | 
9 | CSc1[nH]c2cccc3c2c1C[C@@H]1[C@@H]3C[C@@H](COC=CC(C)=O)CN1C [355/1357, 2-Thiomethyl-6-methyl-8-[(3-buten-2-one)-4-oxymethyl]-ergoline] | 2.5 | > 300 |  |  |  | 
10 | CCCN1C[C@H](COC=CC(C)=O)C[C@@H]2c3cccc4[nH]cc(c34)C[C@H]21 [355/1363, 6-Propyl-8-[(3-buten-2-one)-4-oxymethyl]-ergoline] | 2.4 | 400 |  |  |  | 
11 | CN(C)CCCN1c2ccccc2CCc2ccccc21 [imipramine, reference compound] |  |  |  | 18.2 | 3.1 | quite higher orientative acute toxicity
